Results on six compounds are retold here after PMC6312196 (ChemMedChem, 2018).

Numbering of substitutions follows the chain as printed. Read-outs that look alike come from different tables or passages of the source. A value given as a limit tells only on which side of the number the result lay.

One data set concerns K562. Put plainly: Cellular proliferation assay. Format: cell-based. Particulars: read-out: IC50 (mean ±SD) K562.
The test system of the next data set is KCL22. Put plainly: Cellular proliferation assay. Type of data set: cell-based. Particulars: read-out: IC50 (mean ±SD) KCL22.
The next data set has as its system KCL22-IR. Put plainly: Cellular proliferation assay. Type of data set: cell-based. The following applies: 72 h.
The target in a further data set is T1, ABL1 (Homo sapiens, UniProt P00519).
T1 sequence (P00519 242-493 limits assumed): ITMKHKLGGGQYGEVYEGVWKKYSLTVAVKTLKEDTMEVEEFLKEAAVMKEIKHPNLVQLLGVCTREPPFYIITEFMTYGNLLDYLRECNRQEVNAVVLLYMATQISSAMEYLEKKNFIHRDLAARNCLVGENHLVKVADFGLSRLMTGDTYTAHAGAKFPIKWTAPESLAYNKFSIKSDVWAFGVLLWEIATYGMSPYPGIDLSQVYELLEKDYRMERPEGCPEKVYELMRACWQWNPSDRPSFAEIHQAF
Put plainly: Enzymatic inhibition of ABL1 wild type. Type of data set: biochemical. Particulars: read-out: IC50 ABL1 wild type; enzyme, Figure 8A.

The target in data set [1] is T2, ABL1(T315I) (Homo sapiens, UniProt P00519, T315I).
T2 sequence (P00519 242-493 T315I limits assumed): T1 sequence (P00519 242-493 limits assumed) with T74I
Put plainly: Enzymatic inhibition of ABL1. Type of data set: biochemical. Particulars: read-out: IC50 ABL1(T315I); enzyme, Figure 8B.

For data set [2], the target named is ABL1(T315I) (Homo sapiens, UniProt P00519+P11274, T315I). Put plainly: Cellular ABL1 kinase phosphorylation assay in KCL22-IR. Particulars: read-out: IC50 (mean ±SD) cellular ABL1 activity, KCL22-IR; 2 hours incubation, KCL22-T315I cells.
The conditions of data set [3]: cited from earlier work.
The mark [4] stands for this setting: read-out: IC50 (mean ±SD) KCL22-IR, anti-proliferation, T315I mutation.

Take `Cc1ccc(C(=O)Nc2ccc(CN3CCN(C)CC3)c(C(F)(F)F)c2)cc1C#Cc1cnc(N)c2ncccc12` [Compound 9]: the IC50 in the data set with K562 (anti-proliferation, 72 h) came out at 1.85 ± 0.03 nM; in the data set on KCL22 (anti-proliferation, 72 h) it was 0.18 ± 0.004 nM; in the data set on KCL22-IR (setting [4]), 0.74 ± 0.004 nM.
With `Cc1ncc(C(=O)Nc2ccc(CN3CCN(C)CC3)c(C(F)(F)F)c2)cc1C#Cc1cnc(N)c2ncccc12` [Compound 15], the IC50 on ABL1 was < 5 nM; on ABL1(T315I) [1] it was 4.7 nM; in the data set on K562 (anti-proliferation, 72 h), 1.75 ± 0.04 nM; in the data set with KCL22 (anti-proliferation, 72 h), 0.303 ± 0.002 nM; with KCL22-IR (setting [4]) it was 2.67 ± 0.07 nM; at ABL1(T315I) [2], 18.9 ± 1.1 nM.
On to `CN1CCN(Cc2ccc(NC(=O)c3cncc(C#Cc4cnc(N)c5ncccc45)c3)cc2C(F)(F)F)CC1` [Compound 16], for which the IC50 is < 5 nM at ABL1; 40.7 nM on ABL1(T315I) [1]; 0.765 ± 0.005 nM with K562 (anti-proliferation, 72 h); 1.02 ± 0.04 nM with KCL22 (anti-proliferation, 72 h); 4.14 ± 0.11 nM with KCL22-IR (setting [4]); 26 ± 1.1 nM on ABL1(T315I) [2].
Take `CN1CCN(Cc2ccc(NC(=O)c3cncc(C#Cc4c(N)ncc5ccc(F)cc45)c3)cc2C(F)(F)F)CC1` [Compound 29]: the IC50 on ABL1 is < 5 nM; on ABL1(T315I) [1] it was 32.8 nM; in the data set with K562 (anti-proliferation, 72 h), 0.688 ± 0.003 nM; in the data set with KCL22 (anti-proliferation, 72 h) it was 0.444 ± 0.008 nM; in the data set on KCL22-IR (setting [4]), 4.1 ± 0.03 nM; at ABL1(T315I) [2] it was 36.4 ± 1.1 nM.
As to `Cc1ccc(NC(=O)c2ccc(CN3CCN(C)CC3)cc2)cc1Nc1nccc(-c2cccnc2)n1` [Imatinib, reference compound], the IC50 with KCL22-IR (read-out: IC50 KCL22-IR (bound cells)) was > 1000 nM.
For the compound `Cc1ccc(C(=O)Nc2ccc(CN3CCN(C)CC3)c(C(F)(F)F)c2)cc1C#Cc1cnc2cccnn12` [Ponatinib, reference compound], the IC50 came out at 0.6003 ± 0.0023 nM in the data set on K562 (Homo sapiens, K562, 72 h); 0.142 ± 0.003 nM in the data set on KCL22 (Homo sapiens, KCL-22, 72 h); 0.66 ± 0.005 nM in the data set with KCL22-IR (read-out: IC50 (mean ±SD) KCL22-IR). In data set [3] (cardiovascular, cerebrovascular, peripheral vascular events), the “patients reporting serious and non-serious thrombotic events” value was 17.1%. In addition, the “deaths linked to the use of the drug” value in data set [3] (study n=499) is “Five”.
